“And” between values parts separate entries of the source, which are not always exact repeats. Equal entries are not always repeated.
Tests used:
[1] = tested on: PEO1 cells; assay: In vitro [^18F]11 uptake in PEO1 cells; type: cell-based, human; settings: 50 μg/mL CDDP, 60 min uptake
Text: (§1) The human ovarian carcinoma cell lines PEO1/4 were established and characterised as described in Wolf C. R. et al.^22 and Langdon S. P. et al^23. Briefly, PEO1/4 cells were derived from the malignant ascites of a patient with a recurrent mucinous ovarian adenocarcinoma, before (PEO1) and after (PEO4) the onset of a clinical resistance to cisplatin chemotherapy in this patient. The radiation-induced murine fibrosarcoma (RIF-1) tumour cell line was originally characterised by Twentyman P. R. et al.^20. The LNM35 tumour cells are a highly lymphogenous metastatic subline of the human large pulmonary carcinoma NCI-H460 cell line, as described in Kozaki K. et al.^24. […]
(§2) Cells were plated in triplicate in 12-well plates 2 or 3 days prior to the experiments and treated with the antineoplastic platinum-derived drug Cisplatin, 5-FU, the protein synthesis inhibitor cycloheximide (CHX) or the topoisomerase inhibitor etoposide (VP-16) (Sigma, UK) or corresponding vehicle at the indicated concentration and time. […] 260 μL of each sample were transferred in counting tubes and Fluorine-18 radioactivity was immediately determined using a Packard Cobra II gamma counter (Perkin Elmer, UK). […] BCA Protein assay (Pierce, UK) was performed for all samples and datas are normalized and expressed as CCPMA or RLU (Relative Light Unit)/mg of protein.

[2] = In vivo metabolism studies, radio-HPLC of plasma, liver and urine; set-up: species or system C3H/hej mice; settings: for Recovery (plasma): extraction efficiency; for Parent (liver) / Recovery (liver): individual results from two samples
Protocol: [^18F]11 was injected intravenously into tumor-bearing mice and its tissue distribution was measured in selected tissues at 2, 15 and 60 min after injection. […] Furthermore, the in vivo metabolic stability of the radiotracer was determined from plasma and liver samples and, for [^18F]11, in urine samples.
In vivo metabolism studies were also performed in C3H/hej mice. […] Plasma, liver and urine samples were snap-frozen in liquid nitrogen and kept in pre-weighed scintillation counting tubes on dry ice prior to analysis.
Immediately prior to extraction the samples were thawed and placed on ice. For extraction, ice cold acetonitrile (1.5 mL) was added to plasma (0.2 mL); S9 incubation samples (3 mL) containing acetonitrile were also analysed. Each mixture was centrifuged (15493×g, 4° C., 3 min) and the resulting supernatant was evaporated to dryness under vacuum at 40° C. using a rotary evaporator. Liver samples were homogenized with ice cold acetonitrile (1.5 mL) using an IKA Ultra-Turrax T-25 homogeniser prior to centrifugation. The residues were then re-suspended in HPLC mobile phase (1.2 mL) and filtered through a Minisart hydrophilic syringe filter (0.2 μm) (Sartorius, Goettingen, Germany). Urine samples were diluted with HPLC mobile phase, filtered as above. The samples (1 mL) were then analyzed by radio-HPLC on an Agilent 1100 series HPLC system (Agilent Technologies, Stockport, UK) equipped with a γ-RAM Model 3 gamma-detector and the Laura software (IN/US Systems inc., Florida, USA).
The stationary phase comprised of a Waters μBondapak C18 reverse-phase column (300×7.8 mm). […] Furthermore, to assess the fraction of [^18F]9-derived radioactivity associated with the plasma and liver pellets after extraction versus that remaining in the HPLC injectate, the total volume of HPLC injectate was recorded and an aliquot (0.1 mL) removed for counting. The radioactivity in the 0.1 mL aliquot and the pellet were then analyzed by gamma counting (Packard Instruments).

[3] = tested on: LNM35 cells; assay: In vitro [^18F]11 uptake in LNM35 cells; type: cell-based, human; settings: 100 μM CDDP or VP-16, 60 min uptake
Text: as §1, §2

Question: For `O=C1C(=O)N(Cc2cn(CC[18F])nn2)c2ccc(S(=O)(=O)N3CCC[C@H]3COc3ccc(F)cc3F)cc21` [[^18F]11, (S)-1-((1-(2-Fluoroethyl)-1H-[1,2,3]-triazol-4-yl)methyl)-5-(2(2,4-difluorophenoxymethyl)-pyrrolidine-1-sulfonyl)isatin], which “[^18F]11 uptake in drug-treated cells compared to control” value [1] is on record?
Answer: significantly increased

Question: What about the “Recovery (plasma)” value ([2]; 2 min) of the same compound?
Answer: 92.1 ± 3.4%

Question: What about the “Parent (liver)” value ([2]; 2 min) of the same compound?
Answer: 35.7% and 43.4%

Question: What about the “Recovery (liver)” value ([2]; 2 min) of the same compound?
Answer: 79.7% and 86.9%

Question: And the “Parent (plasma)” value ([2]; 2 min after i.v. injection, mice, radio-HPLC)?
Answer: 86.1 ± 3.7%

Question: What about the “Recovery (plasma)” value ([2]; 15 min) of the same compound?
Answer: 76.8 ± 5.2%

Question: What about the “Parent (liver)” value ([2]; 15 min) of the same compound?
Answer: 9.7% and 10.2%

Question: What about the “Recovery (liver)” value ([2]; 15 min) of the same compound?
Answer: 67.1% and 68.9%

Question: And the “Parent (plasma)” value ([2]; 15 min after i.v. injection, mice, radio-HPLC)?
Answer: 61.3 ± 5.9%

Question: What about the “Recovery (plasma)” value ([2]; 60 min) of the same compound?
Answer: 50.9 ± 3.7%

Question: And the “Parent (liver)” value ([2]; 60 min)?
Answer: 27.0% and 29.7%

Question: What about the “Recovery (liver)” value ([2]; 60 min) of the same compound?
Answer: 46.4% and 65.2%

Question: And the “Parent (plasma)” value ([2]; 60 min after i.v. injection, mice, radio-HPLC)?
Answer: 64.8 ± 7.0%

Question: And the “stability to metabolic degradation in vivo” value ([2]; radio-HPLC, plasma and liver, mice)?
Answer: relatively more stable to metabolic degradation than [^125I]14

Question: What about the “[^18F]11 uptake in drug-treated cells compared to control” value [3] of the same compound?
Answer: significantly increased

From patent publication US8961930B2, “Isatin derivatives for use as in vivo imaging agents” (Imperial Innovations Limited, priority 2008, dated 2015)
